Measured values taken from patent US20070286839A1, “COMPOSITION COMPRISING JOJOBA CARBOXYLATES IN COMBINATION WITH JOJOBA ALCOHOL AND COSMETIC FORMULATION COMPRISING SAME” (priority 2006, published 2007).

Tested on: normal, human-derived epidermal keratinocytes
Test: EPIDERM Skin Model In Vitro Toxicity Testing System, dermal irritancy potential (ET-50 test)
Conditions: time at which percent viability equals 50%
Procedure: Applicants' jojobate carboxylate/jojoba alcohol/glycol formulation of Example I was evaluated by MatTek Corporation using an EPIDERM Skin Model In Vitro Toxicity Testing System.
The percentage of viable cells was then determined for each test sample using a spectrophotometric analysis at 570 nm. Thereafter, a semi-log plot of the percent viabilities, on the linear Y axis, versus the dosing times, on the log X axis. By interpolation, the time which the percent viability would equal 50%, i.e. the ET-50 time, was determined.

Molecule | ET-50 time
CCCCCCCCCCCCOS(=O)(=O)[O-].[Na+] [Sodium Lauryl Sulfate] | less than 1 hours
Triton X | 3.7 h
